Read-outs that look alike come from different tables or passages of the source.
Experiment: log P by HPLC on reversed-phase columns (C 18), EEC Directive 79/831 Annex V.A8
Format: physicochemical
Conditions: for chromatographic logP: read-out: log P (pH2.3)
[1] = [a] HPLC, acid region pH 2.3, 0.1% aqueous phosphoric acid and acetonitrile
[2] = [b] LC-MS, acid region pH 2.7, 0.1% aqueous formic acid and acetonitrile
[3] = reversed-phase C18 HPLC column, pH 2.3, pH 2.3, given in synthesis examples

Structure (SMILES)	log p [1]	further results
Cc1cc(Oc2nc(Cc3c(Cl)cccc3Cl)ns2)c(C)cc1N=CN1CCCCC1 [Example 86]	2.6^[a]	
CCN(C)C=Nc1cc(C)c(Oc2nc(Cc3ccc(OC)cc3)ns2)cc1C [Example 75]	2.98^[a]	
Cc1cc(Oc2nc(Cc3c(F)cccc3Cl)ns2)c(C)cc1N=CN1CCCCC1 [Example 77]	2.12^[a]	
Cc1cc(Oc2nc(Cc3ccc(F)cc3)ns2)c(C)cc1N=CN(C)CC(F)F [Example 131]		log p [2]: 1.99^[b]
CCN(C)C=Nc1cc(C)c(Oc2nc(Cc3ccccc3C)ns2)cc1C [Example 72]	1.89^[a]	
Cc1cc(Oc2nc(Cc3cccc(Cl)c3Cl)ns2)c(C)cc1N=CN1CCCCC1 [Example 93]	2.38^[a]	
CCN(C)C=Nc1cc(C)c(Oc2nc(Cc3cccc(Br)c3)ns2)cc1C [Example 65]	2.38^[a]	
CCOCC(C1CC1)N(C)C=Nc1cc(C)c(Oc2nc(Cc3ccc(OC(F)(F)F)cc3)ns2)cc1C (stereo not drawn) [Example 143]		log p [2]: 2.75^[b]
CCN(C)C=Nc1cc(C)c(Oc2nc(Cc3ccc(F)c(F)c3)ns2)cc1C [Example 54]	1.86^[a]	
CCN(C)C=Nc1cc(C)c(Oc2nc(Cc3ccc(C)cc3)ns2)cc1C [Example 120]		log p [2]: 2.12^[b]
CCN(C)C=Nc1cc(C)c(Oc2nc(Cc3ccc([N+](=O)[O-])cc3)ns2)cc1C [Example 64]	2.11^[a]	
CCN(C)C=Nc1cc(C)c(Oc2nc(Cc3cccc(Cl)c3Cl)ns2)cc1C [Example 96]	2.21^[a]	
Cc1cc(Oc2nc(Cc3ccc(F)c(C(F)(F)F)c3)ns2)c(C)cc1N=CN1CCCCC1 [Example 91]	2.44^[a]	
CCN(C)C=Nc1cc(C)c(Oc2nc(Cc3ccc(SC(F)(F)F)cc3)ns2)cc1C [Example 102]	2.78^[a]	
Cc1cc(Oc2nc(Cc3ccc4ccccc4c3)ns2)c(C)cc1N=CN1CCCCC1 [Example 92]	2.43^[a]	
CCOCC(C1CC1)N(C)C=Nc1cc(C)c(Oc2nc(Cc3ccc(F)cc3)ns2)cc1C (stereo not drawn) [Example 132]		log p [2]: 2.26^[b]
Cc1cc(Oc2nc(C3(c4ccc(Cl)cc4)CC3)ns2)c(C)cc1N [4-({3-[1-(4-Chlorophenyl)cyclopropyl]-1,2,4-thiadiazol-5-yl}oxy)-2,5-dimethylaniline]		chromatographic logP [3]: 4.44
Cc1cc(Oc2nc(Cc3ccc(OC(F)(F)F)cc3)ns2)c(C)cc1N=CN(C)CC(F)F [Example 142]		log p [2]: 2.46^[b]
Cc1cc(Oc2nc(Cc3ccc(F)cc3F)ns2)c(C)cc1N=CN1CCCCC1 [Example 55]	2.02^[a]	
CCOCC(C1CC1)N(C)C=Nc1cc(C)c(Oc2nc(Cc3ccc(SC(F)(F)F)cc3)ns2)cc1C (stereo not drawn) [Example 128]		log p [2]: 2.92^[b]

Structure (SMILES)	log p [1]	further results
Cc1ccc(Cc2nsc(Oc3cc(C)c(N=CN(C)CC(F)F)cc3C)n2)cc1 [Example 137]		log p [2]: 2.25^[b]
O=c1oc(C2(c3ccc(Cl)cc3)CC2)ns1		chromatographic logP (pH 2.3, given in synthesis examples): 3.59
CCN(C)C=Nc1cc(C)c(Oc2nc(Cc3cccc(F)c3)ns2)cc1C [Example 78]	1.87^[a]	
Cc1cc(Oc2nc(Cc3ccccc3Br)ns2)c(C)cc1N=CN1CCCCC1 [Example 98]	2.36^[a]	
CCN(C)C=Nc1cc(C)c(Oc2nc(Cc3ccc4ccccc4c3)ns2)cc1C [Example 97]	2.22^[a]	
CCN(C)C=Nc1cc(C)c(Oc2nc(Cc3ccc(Oc4ccccc4)cc3)ns2)cc1C [Example 80]	2.72^[a]	
Cc1ccc(S(=O)(=O)c2nc(C3(c4ccc(Cl)cc4)CC3)ns2)cc1 [3-[1-(4-Chlorophenyl)cyclopropyl]-5-[(4-methylphenyl)sulphonyl]-1,2,4-thiadiazole]		chromatographic logP [3]: 4.97
Cc1cc(Oc2nc(Cc3ccc(OC(F)(F)F)cc3)ns2)c(C)cc1N=CN1CCCCC1 [Example 58]	2.71^[a]	
COc1ccc(Cc2nsc(Oc3cc(C)c(N=CN(C)C4CC4)cc3C)n2)cc1 [Example 135]		log p [2]: 1.92^[b]
Cc1cc(Oc2nc(Cc3cc(F)ccc3F)ns2)c(C)cc1N=CN1CCCCC1 [Example 84]	2.4^[a]	
CCN(C)C=Nc1cc(C)c(Oc2nc(Cc3ccc(C(F)(F)F)cc3)ns2)cc1C [Example 71]	2.29^[a]	
Cc1cc(Oc2nc(Cc3ccc(C(F)(F)F)cc3)ns2)c(C)cc1N=CN1CCCCC1 [Example 79]	2.66^[a]	
Cc1cc(Oc2nc(Cc3ccc(F)cc3)ns2)c(C)cc1N=CN(C)C1CC1 [Example 127]		log p [2]: 1.83^[b]
Cc1ccccc1Cc1nsc(Oc2cc(C)c(N=CN3CCCCC3)cc2C)n1 [Example 68]	2.06^[a]	
Cc1ccc(Cc2nsc(Oc3cc(C)c(N=CN(C)C4CC4)cc3C)n2)cc1 [Example 138]		log p [2]: 2.19^[b]
CCN(C)C=Nc1cc(Cl)c(Oc2nc(Cc3ccc(Br)cc3)ns2)cc1C [Example 119]		log p [2]: 2.26^[b]
Cc1cc(Oc2nc(Cc3ccccc3Cl)ns2)c(C)cc1N=CN1CCCCC1 [Example 62]	2.43^[a]	
CCN(C)C=Nc1cc(Cl)c(Oc2nc(Cc3ccc(SC(F)(F)F)cc3)ns2)cc1C [Example 95]	2.51^[a]	
Cc1cc(Oc2nc(Cc3ccc(Oc4ccccc4)cc3)ns2)c(C)cc1N=CN1CCCCC1 [Example 85]	2.85^[a]	
Cc1cc(Oc2nc(Cc3ccc(-c4ccccc4)cc3)ns2)c(C)cc1N=CN1CCCCC1 [Example 70]	2.45^[a]	

Structure (SMILES)	log p [1]	further results
Cc1ccc(Br)cc1Cc1nsc(Oc2cc(C)c(N=CN3CCCCC3)cc2C)n1 [Example 83]	2.79^[a]	
CCN(C)C=Nc1cc(Cl)c(Oc2nc(Cc3ccc(Cl)cc3Cl)ns2)cc1C [Example 118]		log p [2]: 2.42^[b]
CCN(C)C=Nc1cc(C)c(Oc2nc(Cc3ccc(C#N)cc3)ns2)cc1C [Example 69]	1.63^[a]	
COc1ccc(Cc2nsc(Oc3cc(C)c(N=CN4CCCCC4)cc3C)n2)cc1 [Example 76]	1.9^[a]	
Cc1cc(Oc2nc(Cc3ccc(C(F)(F)F)cc3)ns2)c(C)cc1N=CN(C)C1CC1 [Example 130]		log p [2]: 2.28^[b]
Cc1cc(Oc2nc(Cc3cccc(F)c3)ns2)c(C)cc1N=CN1CCCCC1 [Example 81]	2.25^[a]	
CCN(C)C=Nc1cc(C)c(Oc2nc(Cc3c(F)cccc3Cl)ns2)cc1C [Example 74]	2.33^[a]	
Cc1cc(Oc2nc(Cc3cccc(Br)c3)ns2)c(C)cc1N=CN1CCCCC1 [Example 59]	2.23^[a]	
COc1ccc(Cc2nsc(Oc3cc(C)c(N=CN(C)CC(F)F)cc3C)n2)cc1 [Example 136]		log p [2]: 1.87^[b]
CCN(C)C=Nc1cc(C)c(Oc2nc(Cc3ccc(OC(F)(F)F)cc3)ns2)cc1C [Example 56]	2.21^[a]	
Cc1cc(Oc2nc(Cc3ccc(F)c(F)c3)ns2)c(C)cc1N=CN1CCCCC1 [Example 63]	2.39^[a]	
CCOCC(C1CC1)N(C)C=Nc1cc(C)c(Oc2nc(Cc3ccc(C(F)(F)F)cc3)ns2)cc1C (stereo not drawn) [Example 133]		log p [2]: 2.43^[b]
CCOCC(C1CC1)N(C)C=Nc1cc(C)c(Oc2nc(Cc3ccc(C)cc3)ns2)cc1C (stereo not drawn) [Example 140]		log p [2]: 2.4^[b]
CCOc1ccc(Cc2nsc(Oc3cc(C)c(N=CN4CCCCC4)cc3C)n2)cc1 [Example 90]	2.23^[a]	
Cc1cc(Oc2nc(Cc3ccc(C#N)cc3)ns2)c(C)cc1N=CN1CCCCC1 [Example 82]	2.06^[a]	
Cc1cc(Oc2nc(Cc3ccc(Cl)cc3)ns2)c(C)cc1N=CN(C)CC(F)F [Example 53]	2.18^[a]	
CCOCC(C1CC1)N(C)C=Nc1cc(C)c(Oc2nc(Cc3ccc(OC)cc3)ns2)cc1C (stereo not drawn) [Example 134]		log p [2]: 2.36^[b]
CCN(C)C=Nc1cc(C)c(Oc2nc(Cc3ccccc3F)ns2)cc1C [Example 99]	2.12^[a]	
CCN(C)C=Nc1cc(C)c(Oc2nc(Cc3ccc(-c4ccccc4)cc3)ns2)cc1C [Example 73]	2.8^[a]	

More lines, main results first:

log p [1]	Structure (SMILES)	further results
2.27^[a]	Cc1cc(Oc2nc(Cc3ccccc3F)ns2)c(C)cc1N=CN1CCCCC1 [Example 104]	
2.28^[a]	CCN(C)C=Nc1cc(C)c(Oc2nc(Cc3cccc(C)c3)ns2)cc1C [Example 113]	
2.44^[a]	Cc1cccc(Cc2nsc(Oc3cc(C)c(N=CN4CCCCC4)cc3C)n2)c1 [Example 114]	
2.57^[a]	CCN(C)C=Nc1cc(C)c(Oc2nc(Cc3cc(Br)c(F)cc3C)ns2)cc1C [Example 116]	
2.33^[a]	Cc1cc(Oc2nc(Cc3c(F)cc(F)cc3F)ns2)c(C)cc1N=CN1CCCCC1 [Example 117]	
2.7^[a]	CCOCC(NC=Nc1cc(C)c(Oc2nc(Cc3ccc(Cl)cc3)ns2)cc1C)C1CC1 (stereo not drawn) [Example 139]	
2.93^[a]	CCN(C)C=Nc1cc(C(C)C)c(Oc2nc(Cc3ccc(Cl)cc3Cl)ns2)cc1C [Example 108]	
2.49^[a]	Cc1ccc(Cc2nsc(Oc3cc(C)c(N=CN4CCCCC4)cc3C)n2)cc1 [Example 122]	
2.16^[a]	Cc1cc(Oc2nc(Cc3ccccc3[N+](=O)[O-])ns2)c(C)cc1N=CN1CCCCC1 [Example 121]	
2.44^[a]	Cc1ccc(Cc2nsc(Oc3cc(C)c(N=CN4CCCCC4)cc3C)n2)c([N+](=O)[O-])c1 [Example 103]	
2.07^[a]	CCN(C)C=Nc1cc(C)c(Oc2nc(Cc3ccccc3[N+](=O)[O-])ns2)cc1C [Example 106]	
2.37^[a]	Cc1cc(Oc2nc(Cc3ccc4ccccc4c3)ns2)c(C)cc1N=CN1CCCCC1 [Example 107]	
2.41^[a]	CCN(C)C=Nc1cc(C(C)C)c(Oc2nc(Cc3ccc(F)cc3)ns2)cc1C [Example 110]	
2.24^[a]	CCN(C)C=Nc1cc(C)c(Oc2nc(Cc3ccc4ccccc4c3)ns2)cc1C [Example 112]	
2.1^[a]	CCN(C)C=Nc1cc(C)c(Oc2nc(Cc3c(F)cc(F)cc3F)ns2)cc1C [Example 105]	
2.71^[a]	CCN(C)C=Nc1cc(C(C)C)c(Oc2nc(Cc3ccc(Cl)cc3)ns2)cc1C [Example 109]	
